The text below walks through data of ChEMBL document CHEMBL1142165, “Influence on mitochondria and cytotoxicity of different antibiotics administered in high concentrations on primary human osteoblasts and cell lines” (Antimicrob Agents Chemother, 2007).

Calls of active or inactive are those of the source. The rule behind the calls is not given here.

The test system of experiment [1] is Osteoblast. The experiment in a line: Antiproliferative effect against primary human osteoblasts assessed as BrdU incorporation into DNA after 48 hrs after 48 hrs below 1 uM. Format: functional, cell-based. Background: Uptake of a labelled nucleoside into DNA is a usual measure of proliferation.
Experiment [2] relates to Osteoblast. As to the kind of experiment: Increase in lactate production in primary human osteoblasts at 10 hrs by ELISA. The experiment is classed as functional. On the technique in general: ELISA stands for enzyme-linked immunosorbent assay.
In experiment [3] the test system is MG-63. As to the kind of experiment: Increase in lactate production in MG63 cells at 50 nM by ELISA relative to control. Format: functional, Homo sapiens.
Experiment [4] deals with MG-63. The experiment in a line: Inhibition of metabolic activity in MG63 cells by MTT assay relative to control. Format: functional, Homo sapiens. In general terms: Formazan colour is commonly taken as a measure of viable cells.
The test system of experiment [5] is Osteoblast. The experiment in a line: Increase in lactate production in primary human osteoblasts above 0.25 uM by ELISA. The experiment is classed as functional.
For experiment [6], the system named is Osteoblast. As to the kind of experiment: Inhibition of metabolic activity in primary human osteoblasts by MTT assay below 1 uM. The experiment is classed as functional, cell-based.

What is called Inhibition is the relative decrease from the control value, in per cent. Higher therefore signals a strong effect.

Consider `CCCCCC[C@H]1C(=O)O[C@H](C)[C@H](NC(=O)c2cccc(NC=O)c2O)C(=O)O[C@@H](C)[C@@H]1OC(=O)CC(C)C` [ANTIMYCIN A], for which the outcome in experiment [1] and in experiment [6] was inactive. Moreover, the Activity was 14 µmol in experiment [2], 50% in experiment [3] and 150% in experiment [5]. The compound further displayed an Inhibition in experiment [4] of 70%.
